Data published in PubChem BioAssay (NCI).
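48-hour exposure; five concentrations; linearly interpolated endpoints. TGI: concentration producing complete growth inhibition.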

Experiments:
Assay in all cases: NCI-60 cell line screen, 48 h
LOX IMVI melanoma = tested on: LOX IMVI melanoma
NCI-H460 lung = tested on: NCI-H460 lung
MOLT-4 leukemia = tested on: MOLT-4 leukemia
SK-MEL-28 melanoma = tested on: SK-MEL-28 melanoma
OVCAR-3 ovarian = tested on: OVCAR-3 ovarian
KM12 colon = tested on: KM12 colon
IGROV1 ovarian = tested on: IGROV1 ovarian
HT29 colon = tested on: HT29 colon
MDA-MB-435 = tested on: MDA-MB-435
MDA-MB-231 breast = tested on: MDA-MB-231 breast
NCI-H23 lung = tested on: NCI-H23 lung
DU-145 prostate = tested on: DU-145 prostate
SNB-19 CNS = tested on: SNB-19 CNS
BT-549 breast = tested on: BT-549 breast
NCI/ADR-RES ovarian = tested on: NCI/ADR-RES ovarian
RXF 393 renal = tested on: RXF 393 renal
M14 melanoma = tested on: M14 melanoma
OVCAR-4 ovarian = tested on: OVCAR-4 ovarian
TK-10 renal = tested on: TK-10 renal
NCI-H226 lung = tested on: NCI-H226 lung
A549 NSCLC = tested on: A549 NSCLC
SK-MEL-5 melanoma = tested on: SK-MEL-5 melanoma
HOP-62 NSCLC = tested on: HOP-62 NSCLC
OVCAR-8 ovarian = tested on: OVCAR-8 ovarian
T-47D breast = tested on: T-47D breast
U251 CNS = tested on: U251 CNS
SF-295 CNS = tested on: SF-295 CNS
MDA-N = tested on: MDA-N
SW-620 colon = tested on: SW-620 colon
A498 renal = tested on: A498 renal
ACHN renal = tested on: ACHN renal
UACC-257 melanoma = tested on: UACC-257 melanoma
OVCAR-5 ovarian = tested on: OVCAR-5 ovarian
EKVX NSCLC = tested on: EKVX NSCLC
UO-31 renal = tested on: UO-31 renal
SNB-75 CNS = tested on: SNB-75 CNS
SN12C renal = tested on: SN12C renal
COLO 205 colon = tested on: COLO 205 colon
MALME-3M melanoma = tested on: MALME-3M melanoma
RPMI-8226 leukemia = tested on: RPMI-8226 leukemia
SF-268 CNS = tested on: SF-268 CNS
HCT-15 colon = tested on: HCT-15 colon
SF-539 CNS = tested on: SF-539 CNS
SK-OV-3 ovarian = tested on: SK-OV-3 ovarian
NCI-H522 lung = tested on: NCI-H522 lung
HOP-92 NSCLC = tested on: HOP-92 NSCLC
786-0 renal = tested on: 786-0 renal
CAKI-1 renal = tested on: CAKI-1 renal
HCT-116 colon = tested on: HCT-116 colon
SK-MEL-2 melanoma = tested on: SK-MEL-2 melanoma
SR leukemia = tested on: SR leukemia
PC-3 prostate = tested on: PC-3 prostate
HS 578T breast = tested on: HS 578T breast
K-562 leukemia = tested on: K-562 leukemia
MCF7 breast = tested on: MCF7 breast
CCRF-CEM leukemia = tested on: CCRF-CEM leukemia
UACC-62 melanoma = tested on: UACC-62 melanoma
HL-60(TB) leukemia = tested on: HL-60(TB) leukemia
HCC-2998 colon = tested on: HCC-2998 colon

SMILES: Cc1cnc(Cl)nc1C(C#N)c1nc2ccccc2s1 (stereo not drawn)
- TGI (LOX IMVI melanoma): 50.7 µM
- TGI (NCI-H460 lung): > 100 µM
- TGI (MOLT-4 leukemia): > 100 µM
- TGI (SK-MEL-28 melanoma): > 100 µM
- TGI (OVCAR-3 ovarian): > 100 µM
- TGI (KM12 colon): > 100 µM
- TGI (IGROV1 ovarian): > 100 µM
- TGI (HT29 colon): > 100 µM
- TGI (MDA-MB-435): > 100 µM
- TGI (MDA-MB-231 breast): > 100 µM
- TGI (NCI-H23 lung): 40.8 µM
- TGI (DU-145 prostate): > 100 µM
- TGI (SNB-19 CNS): > 100 µM
- TGI (BT-549 breast): 51.2 µM
- TGI (NCI/ADR-RES ovarian): 89.2 µM
- TGI (RXF 393 renal): 48.1 µM
- TGI (M14 melanoma): > 100 µM
- TGI (OVCAR-4 ovarian): > 100 µM
- TGI (TK-10 renal): 78.4 µM
- TGI (NCI-H226 lung): 84.5 µM
- TGI (A549 NSCLC): > 100 µM
- TGI (SK-MEL-5 melanoma): 20.1 µM
- TGI (HOP-62 NSCLC): 54.6 µM
- TGI (OVCAR-8 ovarian): > 100 µM
- TGI (T-47D breast): > 100 µM
- TGI (U251 CNS): > 100 µM
- TGI (SF-295 CNS): 62.2 µM
- TGI (MDA-N): 68.1 µM
- TGI (SW-620 colon): > 100 µM
- TGI (A498 renal): 84.2 µM
- TGI (ACHN renal): 42.2 µM
- TGI (UACC-257 melanoma): > 100 µM
- TGI (OVCAR-5 ovarian): 80.4 µM
- TGI (EKVX NSCLC): > 100 µM
- TGI (UO-31 renal): > 100 µM
- TGI (SNB-75 CNS): 53.5 µM
- TGI (SN12C renal): 63.2 µM
- TGI (COLO 205 colon): 28.5 µM
- TGI (MALME-3M melanoma): 46 µM
- TGI (RPMI-8226 leukemia): > 100 µM
- TGI (SF-268 CNS): 87.8 µM
- TGI (HCT-15 colon): > 100 µM
- TGI (SF-539 CNS): 63.8 µM
- TGI (SK-OV-3 ovarian): 87.2 µM
- TGI (NCI-H522 lung): 16.4 µM
- TGI (HOP-92 NSCLC): 35.4 µM
- TGI (786-0 renal): 38.3 µM
- TGI (CAKI-1 renal): 73.4 µM
- TGI (HCT-116 colon): 38.2 µM

SMILES: CCC(=O)O[C@H]1CC[C@H]2[C@@H]3CCC4=CC(=O)C=C[C@]4(O)[C@H]3CC[C@]12C
- TGI (LOX IMVI melanoma): 69.5 µM
- TGI (NCI-H460 lung): 44.5 µM
- TGI (MOLT-4 leukemia): > 100 µM
- TGI (SK-MEL-28 melanoma): > 100 µM
- TGI (OVCAR-3 ovarian): 68.4 µM
- TGI (KM12 colon): 85.1 µM
- TGI (IGROV1 ovarian): > 100 µM
- TGI (HT29 colon): 58.4 µM
- TGI (MDA-MB-435): 10.2 µM
- TGI (MDA-MB-231 breast): 58.5 µM
- TGI (NCI-H23 lung): > 100 µM
- TGI (DU-145 prostate): 64.5 µM
- TGI (SNB-19 CNS): > 100 µM
- TGI (BT-549 breast): 57.5 µM
- TGI (NCI/ADR-RES ovarian): 91.9 µM
- TGI (SK-MEL-2 melanoma): 45.8 µM
- TGI (SR leukemia): 80.5 µM
- TGI (RXF 393 renal): 52.4 µM
- TGI (PC-3 prostate): 81.4 µM
- TGI (M14 melanoma): > 100 µM
- TGI (OVCAR-4 ovarian): > 100 µM
- TGI (TK-10 renal): > 100 µM
- TGI (NCI-H226 lung): > 100 µM
- TGI (A549 NSCLC): > 100 µM
- TGI (SK-MEL-5 melanoma): 19.9 µM
- TGI (HOP-62 NSCLC): > 100 µM
- TGI (OVCAR-8 ovarian): > 100 µM
- TGI (U251 CNS): 47.4 µM
- TGI (SF-295 CNS): > 100 µM
- TGI (MDA-N): > 100 µM
- TGI (SW-620 colon): > 100 µM
- TGI (A498 renal): > 100 µM
- TGI (ACHN renal): > 100 µM
- TGI (UACC-257 melanoma): 26.8 µM
- TGI (OVCAR-5 ovarian): > 100 µM
- TGI (EKVX NSCLC): > 100 µM
- TGI (HS 578T breast): > 100 µM
- TGI (UO-31 renal): > 100 µM
- TGI (SN12C renal): > 100 µM
- TGI (COLO 205 colon): > 100 µM
- TGI (MALME-3M melanoma): > 100 µM
- TGI (RPMI-8226 leukemia): > 100 µM
- TGI (SF-268 CNS): > 100 µM
- TGI (K-562 leukemia): > 100 µM
- TGI (HCT-15 colon): > 100 µM
- TGI (SF-539 CNS): > 100 µM
- TGI (SK-OV-3 ovarian): > 100 µM
- TGI (NCI-H522 lung): > 100 µM
- TGI (MCF7 breast): > 100 µM
- TGI (HOP-92 NSCLC): 82.1 µM
- TGI (CCRF-CEM leukemia): 17.2 µM
- TGI (786-0 renal): > 100 µM
- TGI (CAKI-1 renal): 88.4 µM
- TGI (UACC-62 melanoma): > 100 µM
- TGI (HCT-116 colon): > 100 µM
- TGI (HL-60(TB) leukemia): 37.6 µM

SMILES: COCCCN(Cc1cc(OC)c(OC)c(OC)c1)C(=S)Nc1cccc(Cl)c1
- TGI (LOX IMVI melanoma): 51.1 µM
- TGI (NCI-H460 lung): > 100 µM
- TGI (MOLT-4 leukemia): 33.1 µM
- TGI (SK-MEL-28 melanoma): 85.1 µM
- TGI (OVCAR-3 ovarian): > 100 µM
- TGI (KM12 colon): 67.6 µM
- TGI (IGROV1 ovarian): > 100 µM
- TGI (HT29 colon): 50.2 µM
- TGI (MDA-MB-435): 48.4 µM
- TGI (MDA-MB-231 breast): 83.5 µM
- TGI (DU-145 prostate): > 100 µM
- TGI (SNB-19 CNS): > 100 µM
- TGI (BT-549 breast): 64.9 µM
- TGI (NCI/ADR-RES ovarian): 63.1 µM
- TGI (SK-MEL-2 melanoma): 52.1 µM
- TGI (RXF 393 renal): 96.4 µM
- TGI (PC-3 prostate): 68.2 µM
- TGI (M14 melanoma): 51.8 µM
- TGI (OVCAR-4 ovarian): 91.4 µM
- TGI (TK-10 renal): > 100 µM
- TGI (A549 NSCLC): > 100 µM
- TGI (SK-MEL-5 melanoma): 30 µM
- TGI (HOP-62 NSCLC): > 100 µM
- TGI (OVCAR-8 ovarian): 72.7 µM
- TGI (T-47D breast): 49.2 µM
- TGI (U251 CNS): > 100 µM
- TGI (SF-295 CNS): > 100 µM
- TGI (MDA-N): 45.7 µM
- TGI (SW-620 colon): > 100 µM
- TGI (A498 renal): > 100 µM
- TGI (ACHN renal): > 100 µM
- TGI (UACC-257 melanoma): 48.5 µM
- TGI (OVCAR-5 ovarian): 75.1 µM
- TGI (EKVX NSCLC): 52.4 µM
- TGI (UO-31 renal): 90.5 µM
- TGI (HCC-2998 colon): > 100 µM
- TGI (SNB-75 CNS): 70.7 µM
- TGI (SN12C renal): 92.5 µM
- TGI (COLO 205 colon): > 100 µM
- TGI (RPMI-8226 leukemia): 37.4 µM
- TGI (SF-268 CNS): 63.6 µM
- TGI (K-562 leukemia): 69.2 µM
- TGI (HCT-15 colon): 61.1 µM
- TGI (SF-539 CNS): > 100 µM
- TGI (SK-OV-3 ovarian): > 100 µM
- TGI (MCF7 breast): 62.1 µM
- TGI (HOP-92 NSCLC): 53.7 µM
- TGI (CCRF-CEM leukemia): 55.7 µM
- TGI (786-0 renal): 85.4 µM
- TGI (CAKI-1 renal): > 100 µM
- TGI (UACC-62 melanoma): 44.7 µM
- TGI (HCT-116 colon): 45.1 µM
- TGI (HL-60(TB) leukemia): 45.4 µM
